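Following 48 hours of exposure in 96-well plates, responses at five concentrations were used to interpolate endpoints linearly. TGI: total growth inhibition.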
Assays:
Experiment in all cases: NCI-60 cell line screen, 48 h
SK-MEL-28 melanoma = test system: SK-MEL-28 melanoma
UACC-257 melanoma = test system: UACC-257 melanoma
PC-3 prostate = test system: PC-3 prostate
SW-620 colon = test system: SW-620 colon
MALME-3M melanoma = test system: MALME-3M melanoma
SNB-19 CNS = test system: SNB-19 CNS
NCI/ADR-RES ovarian = test system: NCI/ADR-RES ovarian
NCI-H522 lung = test system: NCI-H522 lung
MOLT-4 leukemia = test system: MOLT-4 leukemia
786-0 renal = test system: 786-0 renal

Measured: TGI

CCCSc1cc(Cl)c(C)cc1S(=O)(=O)n1ccnc1OCCCN(C)C
> 100 µM: all assays above

COc1cc(Oc2nc3ccccc3nc2C(=O)O)cc(OC)c1OC
> 100 µM: all assays above

C=CCNC1=C2C[C@@H](C)C[C@@H](OC)C(OC(=O)CCCN(C)C)[C@H](C)/C=C(\C)[C@@H](OC(N)=O)[C@H](OC)/C=C\C=C(/C)C(=O)NC(=CC1=O)C2=O (stereo not given in full)
24.8 µM: 786-0 renal
20.5 µM: NCI-H522 lung
27.5 µM: UACC-257 melanoma
27.4 µM: SK-MEL-28 melanoma
28.9 µM: SNB-19 CNS
17.2 µM: PC-3 prostate
14.4 µM: MALME-3M melanoma
52.1 µM: NCI/ADR-RES ovarian
39.1 µM: MOLT-4 leukemia
16.9 µM: SW-620 colon

CC1(C)O[C@H](C(=O)O)[C@@H](C(=O)O)O1
> 100 µM: all assays above

COCn1c(C)c(C)c2c(=O)oc(=O)[nH]c21
> 100 µM: all assays above

COc1c2occc2c(OC)c2c(=O)c(S(=O)(=O)NC(=O)Nc3ccc(Cl)cc3)coc12
> 10 µM: all assays above

Cc1cc(S(=O)(=O)Nc2nc3ccsc3c(=O)n2N)c(S)cc1Cl
> 100 µM: all assays above

COc1c(-c2cc(C)c(Cl)c(=O)[nH]2)c(O)c(OC)c2occc12
> 100 µM: all assays above

O=C(NCC1Nc2ccncc2S(=O)(=O)N1)c1ccc(Br)cc1 (stereo not given)
97.5 µM: MALME-3M melanoma
51.4 µM: PC-3 prostate
> 100 µM: all other assays above

O=C(O)Cc1ccc(Oc2nc3ccccc3nc2-c2cccs2)cc1
> 100 µM: all assays above

CN(Cc1c2ccccc2cc2ccccc12)S(=O)(=O)c1ccc(-c2c3nc(c(-c4ccc(S(=O)(=O)N(C)Cc5c6ccccc6cc6ccccc56)cc4)c4ccc([nH]4)c(-c4ccc(S(=O)(=O)N(C)Cc5c6ccccc6cc6ccccc56)cc4)c4nc(c(-c5ccc(S(=O)(=O)N(C)Cc6c7ccccc7cc7ccccc67)cc5)c5ccc2[nH]5)C=C4)C=C3)cc1
> 100 µM: all assays above

Cc1oc2nc1C(=O)NCc1nc(cs1)C(=O)N[C@H](C(C)C)c1nc(cs1)C(=O)N[C@H]2C
87.4 µM: NCI-H522 lung
> 100 µM: all other assays above

COc1cc(C2c3cc4c(cc3C(O)C3CCC(=O)N23)OCO4)cc(OC)c1OC (stereo not given)
89.9 µM: NCI-H522 lung
> 100 µM: all other assays above

CCOC(=O)c1c(SC(=O)c2cc(OC)c(OC)c(OC)c2)n(-c2ccccc2)c(=S)n(-c2ccccc2)c1=O
> 100 µM: all assays above

CCNC(=S)N/N=C/c1cc(OC)ccc1O
> 100 µM: all assays above

[O-][n+]1onc2c3nn(-c4ccccc4)nc3ccc21
> 92.2 µM: UACC-257 melanoma
> 100 µM: all other assays above

CSc1nc2ccccc2c(=O)n1/N=C1\C(=O)N(CN2CCOCC2)c2ccc(Cl)cc21
89.8 µM: NCI-H522 lung
51.2 µM: UACC-257 melanoma
42.8 µM: MOLT-4 leukemia
> 100 µM: all other assays above

CC(C)(C)c1cc(C(O)(C(=O)O)C(=O)O)cc(C(C)(C)C)c1O
> 100 µM: all assays above

C=CCOc1ccc(C2c3c([nH][nH]c3=O)CC(O)(OCC)C2C(=O)OCC)cc1OC (stereo not given)
> 100 µM: all assays above

COc1cc2c(cc1OCCCC(=O)Nc1cc(C(=O)Nc3cc(C(=O)Nc4cc(C(=O)NCCCN(C)C)n(C)c4)n(C)c3)n(C)c1)N=C[C@@H]1CCCN1C2=O
17.6 µM: SNB-19 CNS
5.98 µM: SW-620 colon
2.37 µM: 786-0 renal
4.66 µM: SK-MEL-28 melanoma
3.39 µM: MALME-3M melanoma
6 µM: PC-3 prostate
0.427 µM: NCI-H522 lung
> 100 µM: MOLT-4 leukemia
4.09 µM: UACC-257 melanoma
6.21 µM: NCI/ADR-RES ovarian

Cc1cc(NS(=O)(=O)c2ccc(NC(=O)c3ccc4nc5ccccc5c(Nc5ccc(S(=O)(=O)N=C(N)N)cc5)c4c3)cc2)no1
57.5 µM: NCI/ADR-RES ovarian
29.4 µM: MALME-3M melanoma
94.3 µM: SNB-19 CNS
35 µM: SK-MEL-28 melanoma
34.8 µM: NCI-H522 lung
39.3 µM: PC-3 prostate
30.6 µM: 786-0 renal
67.1 µM: UACC-257 melanoma
40.8 µM: MOLT-4 leukemia
48.5 µM: SW-620 colon

NNC(=O)CC(=O)Nc1ccc(Cl)cc1
> 100 µM: all assays above

COc1ccc2oc(S(=O)(=O)N3CC(CCl)c4ccc([N+](=O)[O-])cc43)cc2c1 (stereo not given)
> 61.6 µM: SK-MEL-28 melanoma
> 100 µM: SW-620 colon | MOLT-4 leukemia
4.03 µM: NCI/ADR-RES ovarian
11.5 µM: PC-3 prostate
0.246 µM: NCI-H522 lung
29.2 µM: SNB-19 CNS
5.47 µM: 786-0 renal
32.8 µM: MALME-3M melanoma
> 32.1 µM: UACC-257 melanoma

O=C1Cc2c(-c3ccc(Cl)cc3)cc(-c3ccccc3)nc2-c2ccccc2N1
26.4 µM: NCI/ADR-RES ovarian
4.92 µM: 786-0 renal
34.8 µM: SK-MEL-28 melanoma
> 46 µM: SW-620 colon
7.31 µM: SNB-19 CNS
> 64 µM: MALME-3M melanoma
> 76.5 µM: MOLT-4 leukemia
32.9 µM: NCI-H522 lung
> 100 µM: UACC-257 melanoma | PC-3 prostate

N#CCCNCCN(CCN(C(=O)Nc1ccccc1)c1ccccc1)C(=O)Nc1ccccc1
54.8 µM: MALME-3M melanoma
54.4 µM: NCI-H522 lung
32.1 µM: UACC-257 melanoma
67.3 µM: SK-MEL-28 melanoma
> 100 µM: all other assays above

O=C1COC(c2ccccc2O)=NN1CCCN1CCCC1
> 100 µM: all assays above

O=C(Nc1ccccc1)c1cc2c(cc1Cl)Sc1nccn1S2(=O)=O
> 69 µM: MOLT-4 leukemia
> 70.1 µM: PC-3 prostate
38.6 µM: NCI-H522 lung
> 78.9 µM: SW-620 colon
74.3 µM: MALME-3M melanoma
53.7 µM: UACC-257 melanoma
71.4 µM: 786-0 renal
46.9 µM: SK-MEL-28 melanoma
> 100 µM: SNB-19 CNS | NCI/ADR-RES ovarian

CCOC(=O)C(=[N+]=[N-])C(=O)C[N+]12CCN(CC1)CC2
> 100 µM: all assays above

CCCC(Sc1nc(N)nc2nc[nH]c12)C(=O)O (stereo not given)
> 100 µM: all assays above

CCSSCS(C)(=O)=O
57.1 µM: UACC-257 melanoma
40 µM: NCI-H522 lung
83.8 µM: NCI/ADR-RES ovarian
21.4 µM: 786-0 renal
> 100 µM: all other assays above

CC1(C)CCC[C@]2(C)[C@@H]1CC[C@@]13O[C@@H]1C1=C(CO)C(=O)O[C@]14O[C@@H]4[C@@H]23
29.8 µM: 786-0 renal
27.9 µM: SNB-19 CNS
25.5 µM: PC-3 prostate
39.1 µM: NCI/ADR-RES ovarian
31.4 µM: SK-MEL-28 melanoma
> 100 µM: MOLT-4 leukemia
35.8 µM: UACC-257 melanoma
29.5 µM: SW-620 colon
32.4 µM: MALME-3M melanoma
22 µM: NCI-H522 lung

COc1ccc(-c2oc3ccc(C)cc3c(=O)c2O)cc1
> 100 µM: all assays above

O=C(O)CC(NC(=O)Nc1ccc([N+](=O)[O-])cc1)C(=O)Nc1ccc([N+](=O)[O-])cc1 (stereo not given)
> 100 µM: all assays above

CC1(C)C2CCC1(CS(=O)(=O)Nc1ccccc1)C(=O)C2 (stereo not given)
> 100 µM: all assays above

COCn1c2ccc(OC(C)=O)cc2c2c(=O)oc(C)nc21
> 100 µM: all assays above

From PubChem BioAssay (NCI)
